Measurements: US12433875B2, “(R)-4-(1-(6-(4-(trifluoromethyl)benzyl)-6-azaspiro[2.5]octane-5-carboxamido)-cyclopropyl) benzoic acid or its salt also in polymorphic form a for use in the prevention of heterotopic ossification” (ROTTAPHARM BIOTECH S.R.L., priority 2019, dated 2025)
“Also recorded” adds a separate entry of the source.

How the values were obtained:
[1] = tested on: Male Lewis rats (CIA model, heterotopic bone formation); assay: Collagen Induce Arthritis (CIA) in rats, histological scores; type: in vivo, rat
Source text: Collagen Induce Arthritis (CIA) in rats is among the most common models used to mimic human arthritis and especially Rheumatoid Arthritis (RA). In general the joint response seen in this model is quite similar to that observed in human pathology, in terms of inflammation, bone erosion and cartilage damage. Nevertheless, this model differs from Rheumatoid Arthritis, since it is endowed with a consistent periosteal woven bone formation (immature bone) that is not a usual feature of human RA (maybe, less than 10% of patients have this type of bone reaction). On the contrary, this disordered apposition of new bone is the distinctive feature of heterotopic ossification. Therefore, this model was used to study the effect of the compound of the invention in Pathological heretopic osteogenesis.
Male Lewis rats were immunized by intradermal injection at the base of the tail with an emulsion containing 150 μg of bovine collagen type II (bCII) in complete Freund's adjuvant (CFA) or received an injection with incomplete Freund's adjuvant (sham group). Three weeks after the first immunisation, animals were boosted with the same procedure. Three days after booster injection, arthritis had developed in all animals but the sham group. The administration of the compound (1) Form A started at this time point and lasted for 14 days (once a day, unless otherwise indicated).
The paws were fixed in 10% neutral buffered formalin (Bio-Optica, Milan, Italy) and subsequently decalcified in EDTA for 4 weeks. Samples were dehydrated in an ethanol series and embedded in paraffin. At least three non-consecutive sections for each paw were blindly scored at the level of the tarsus, metatarsus and calcaneus for the following histological features of woven bone. Two independent pathologists performed histopathology on blinded slides. The data of right and left hind limbs were summed for each rat.
In FIG. 3 the dose-response curve for the compound of the invention is reported. the compound was administered once a day for 14 days on the site where the pathological bone formation was expected as induced in the CIA model in rats. The dose were 1 mg/Kg, 3 mg/kg and 10 mg/kg. The data were expressed as the median (boxed area), 95% interquartile range (whiskers), and individual data (symbols) of the histological scores for heterotopic bone formation (osteogenesis) given by two pathologists unaware of the treatment groups on a following scale: 0=absent; 1=mild/focal; 2=moderate/multifocal; 3=severe/multifocal to diffuse. Since arthritis was bilateral, the scores for each rat was the sum of the two leg scores. […] The compound reached the maximal activity at 10 mg/kg.
The data were expressed as the median histological scores for heterotopic bone formation (osteogenesis) as described for FIG. 3. […] As for osteogenesis, the data reported in this graph were the median (boxed area), 95% interquartile range (whiskers), and individual data (symbols) of the histological scores for synovial hyperplasia (oedema) given by two pathologists unaware of the treatment groups on a following scale: 0=normal: 1-2 layers of synovial lining cells, 1=mild: focal to multifocal 3-4 layers of synovial lining cells and/or mild proliferation of subsynovial tissue, 2=moderate: focal to mutlitfocal >4-6 layers of synovial lining cells and/or moderate proliferation of subsynovial tissue, 3=severe: multifocal to diffuse >6-8 layers of synovial lining cells and/or severe proliferation of subsynovial tissue. Since arthritis was bilateral, the scores for each rat is the sum of the two leg scores. This underline a preferential and surprising effect of (R)-4-(1-(6-(4-(trifluoromethyl)benzyl)-6-azaspiro[2.5]octane-5-carboxamido)cyclopropyl)benzoic acid on the heterotopic bone formation, […].
The free acid form has been assayed in the rat CIA model as already described for its sodium salt (Form A). […]

[2] = tested on: Male Lewis rats (CIA model, osteophyte formation); assay: CIA model in rats, micro-CT study of bone structure; type: in vivo, rat
Protocol: Male Lewis rats were immunized and treated exactly as described in example 2.
Specifically, the animals were divided in four groups: controls, vehicle treated CIA rat, and two groups administered with a dose of 10 mg/kg and 30 mg/kg, respectively, of the compound of the invention.
After 14 days of treatment, bone samples corresponding to hind limbs (left and right) of arthritic rats or sham ones were sent for micro-CT analysis to Atlantic Bone Screen (ABS, 3 rue Aronnax, 44800 SAINT-HERBLAIN France). Bone samples were sent to ABS facilities after they have been removed from soft tissue and fixed in formalin solution within a maximum of 1 week.
40 samples were analyses blindly. Then, the unmask data were analyzed to compare the different groups:
Analyses of calcaneus and knee density and microarchitectural characteristics were performed using the high-resolution X-ray micro-CT. […] To quantitatively compare the four groups, the hind paw calcaneus, knee (proximal tibial and distal femoral epiphysis) and proximal tibial metaphysis were identified as the anatomical sites for micro-CT analysis. The bone mineral density (BMD), bone volume ratio (BV/TV), bone surface (BS) and bone surface-volume ratio (BS/BV) was calculated while including calcaneus, proximal tibial and distal femoral epiphysis (cortical bone, cancellous bone and potential osteophytes).

## O=C([O-])c1ccc(C2(NC(=O)[C@H]3CC4(CCN3Cc3ccc(C(F)(F)F)cc3)CC4)CC2)cc1.[Na+] [Form A, sodium (R)-4-(1-(6-(4-(trifluoromethyl)benzyl)-6-azaspiro[2.5]octane-5-carboxamido)cyclopropyl)benzoate]
[1]; 1 mg/kg combined with methotrexate 0.5 mg/kg every other day, FIG. 5
  activity against heterotopic ossification in combination with methotrexate: not hindered by the combination with this drug
[1]; 1 mg/kg vs methotrexate 0.5 mg/kg every other day, FIG. 5
  activity against heterotopic ossification compared with methotrexate: higher than the comparative compound
[1]; 10 mg/kg once a day vs MSM 600 mg/kg, FIG. 4
  activity on heterotopic bone formation (osteogenesis) compared with Methylsulfonylmethane (MSM): greatly superior
[1]; 15 mg/kg each, FIG. 6b
  control of the inflammatory response (edema; histological scores for synovial hyperplasia): equally effective
[1]; 15 mg/kg, identical dose of rofecoxib, FIG. 6a
  activity in preventing pathological heterotopic ossification compared with rofecoxib: surprisingly superior
[1]; 1, 3 and 10 mg/kg once a day for 14 days, FIG. 3
  histological scores for heterotopic bone formation (osteogenesis): capable to counteract the heterotopic bone formation; also recorded: able to counteract bony spur formation in a dose-dependent fashion
[1]; FIG. 5
  lowest effective dose against heterotopic ossification: 1 mg/kg
[1]; once a day for 14 days, FIG. 3
  dose of maximal activity against heterotopic bone formation: 10 mg/kg
[2]; 10 and 30 mg/kg, 14 days of treatment, FIG. 8
  osteophytes at calcaneus and knee (micro-CT): the osteophytes disappeared at both site
[2]; micro-CT, maintained at 30 mg/kg
  optimal dose (maximal activity) against osteophyte formation: 10 mg/kg
